In patent US20230255205A1, “HERBICIDAL HETEROCYCLIC DERIVATIVES” (MoA Technology Limited, priority 2020, published 2023):

Assays:
Test in all cases: Post-emergence herbicidal test, % visual injury
Format in all cases: in vivo
Conditions in all cases: 336 h, 14±1 days post application; for pest or weed control at 500 g/ha: rate 500 g/ha
[1] = system: Veronica persica (VERPE)
Experimental: (§1) Seeds of a variety of test species are grown in a sandy loam soil mixture, Lolium multiflorum (LOLMU), Amaranthus retroflexus (AMARE), Echinochloa crus-galli (ECHCG), Veronica persica (VERPE).
(§2) After sowing, at growth stage BBCH 12-14 (post-emergence), the plants are sprayed with an aqueous spray solution derived from the formulation of the technical active ingredient in acetone/water (50:50) solution containing 0.5% Tween 20 (polyoxyethlyene sorbitan monolaureate, CAS RN 9005-64-5). The test compounds are applied at the required concentration of active ingredient in g/ha. The test plants are then grown in a glasshouse under controlled environmental conditions and watered regularly as required. After 14±1 days post application (for post-emergence test), the test is evaluated by assessing the percentage damage caused to the plants in comparison with the untreated plots. The biological activities for post-emergence testing are shown below (Table 3) as a % visual injury.

[2] = system: Lolium multiflorum (LOLMU)
Experimental: as §1, §2

[3] = system: Amaranthus retroflexus (AMARE)
Experimental: as §1, §2

[4] = system: Echinochloa crus-galli (ECHCG)
Experimental: as §1, §2

SMILES	pest or weed control at 500 g/ha [1]	pest or weed control at 500 g/ha [2]	pest or weed control at 500 g/ha [3]	pest or weed control at 500 g/ha [4]	also measured
O=C(COc1cccc(Br)c1)Nc1nnc(C(F)(F)F)[nH]1 [Compound 21]	60%	20%	0%	0%	
CC(C)(C)c1nc(NC(=O)COc2ccc(F)cc2Cl)n[nH]1 [Compound 7]	60%	40%	60%	80%	
Cc1ccccc1OCCCC(=O)Nc1nnc(C(F)(F)F)[nH]1 [Compound 89]	95%	0%	40%	0%	
COc1nnc(NC(=O)COc2ccc(F)cc2Cl)[nH]1 [Compound 99]					pest or weed control at 250 g/ha ([1]; rate 250 g/ha): 50%; pest or weed control at 250 g/ha ([2]; rate 250 g/ha): 0%; pest or weed control at 250 g/ha ([3]; rate 250 g/ha): 50%; pest or weed control at 250 g/ha ([4]; rate 250 g/ha): 0%
O=C(COc1ccc(F)cc1F)Nc1nnc(C(F)(F)F)[nH]1 [Compound 10, 2-(2,4-difluorophenoxy)-N-[5-(trifluoromethyl)-4H-1,2,4-triazol-3-yl]acetamide]	80%	0%	40%	30%	
COCc1n[nH]c(NC(=O)COc2ccc(F)cc2Cl)n1 [Compound 3]	90%	60%	100%	90%	
O=C(COc1ccc(F)cc1Cl)Nc1nnc(-c2cccc3ccccc23)[nH]1 [Compound 101]	80%	20%	100%	70%	
Cn1nc(C(F)(F)F)nc1NC(=O)COc1ccc(F)cc1Cl [Compound 41, 2-(2-chloro-4-fluorophenoxy)-N-[1-methyl-3-(trifluoromethyl)-1H-1,2,4-triazol-5-yl]acetamide]	70%	40%	95%	60%	
CCC(Oc1ccccc1F)C(=O)Nc1nnc(C(F)(F)F)[nH]1 (centres unmarked) [Compound 19]	20%	0%	0%	0%	
Cn1ccc2c(OCC(=O)Nc3nc(C(F)(F)F)n[nH]3)cccc21 [Compound 91]	70%	0%	0%	0%	
O=C(COc1cccc(C(F)(F)F)c1)Nc1nnc(C(F)(F)F)[nH]1 [Compound 4]	80%	0%	99%	20%	
O=C(COc1ccc(F)cc1Cl)Nc1n[nH]c(C2CC2)n1 [Compound 1]	60%	40%	100%	90%	
Cc1ccc(OCC(=O)Nc2nnc(C(F)(F)F)[nH]2)cc1 [Compound 20]	40%	0%	0%	30%	
CCn1cnnc1NC(=O)COc1cccc(C(F)(F)F)c1 [Compound 102]	7%	0%	50%	70%	
Cn1c(NC(=O)COc2ccc(F)cc2Cl)nnc1C(F)(F)F [Compound 40]	100%	60%	100%	70%	
CN(C(=O)COc1ccc(F)cc1Cl)c1nc(C(F)(F)F)nn1C [Compound 42, 2-(2-chloro-4-fluorophenoxy)-N-methyl-N-[1-methyl-3-(trifluoromethyl)-1H-1,2,4-triazol-5-yl]acetamide]	60%	40%	90%	60%	
CC(C)c1nnc(NC(=O)COc2ccc(F)cc2Cl)[nH]1 [Compound 23, 2-(2-chloro-4-fluorophenoxy)-N-[5-(propan-2-yl)-4H-1,2,4-triazol-3-yl]acetamide]	100%	40%	100%	90%	
Nc1c(Cl)c(F)nc(OCC(=O)Nc2nnc(C(F)(F)F)[nH]2)c1Cl [Compound 38]	98%	30%	100%	0%	
O=C(COc1cc(Cl)c(Cl)cc1Cl)Nc1nnc(C(F)(F)F)[nH]1 [Compound 39]	50%	0%	80%	0%	
CN(C)c1n[nH]c(NC(=O)COc2ccc(F)cc2Cl)n1 [Compound 24]	50%	0%	70%	70%	
O=C(COc1ccc(F)c(Cl)c1)Nc1nnc(C(F)(F)F)[nH]1 [Compound 5]	98%	0%	80%	30%	
O=C(COc1ccc(F)cc1Cl)Nc1nnc(N2CCCC2)[nH]1 [Compound 6]	50%	0%	50%	20%	
O=C(COc1ccc(Cl)c(F)c1)Nc1nnc(C(F)(F)F)[nH]1 [Compound 16, 2-(4-chloro-3-fluorophenoxy)-N-[5-(trifluoromethyl)-4H-1,2,4-triazol-3-yl]acetamide]	70%	0%	100%	20%	
O=C(COc1nc(Cl)c(Cl)cc1Cl)Nc1nnc(C(F)(F)F)[nH]1 [Compound 37]	30%	5%	80%	60%	
O=C(COc1ccc(Cl)cc1Cl)Nc1nnc(-c2ccc(F)cc2)[nH]1 [Compound 96]	90%	0%	90%	30%	
O=C(COc1ccc(Cl)cc1Cl)Nc1nnc(C(F)(F)F)o1 [Compound 97]					pest or weed control at 125 g/ha ([1]; rate 125 g/ha): 100%; pest or weed control at 125 g/ha ([2]; rate 125 g/ha): 0%; pest or weed control at 125 g/ha ([3]; rate 125 g/ha): 100%; pest or weed control at 125 g/ha ([4]; rate 125 g/ha): 0%
O=C(COc1ccccc1-n1cnnc1)Nc1nc(C(F)(F)F)n[nH]1 [Compound 92]	70%	0%	0%	0%	
Cc1cccc(C)c1OCC(=O)Nc1nnc(C(F)(F)F)[nH]1 [Compound 100]	20%	0%	0%	0%	
O=C(COc1ccc(F)cc1Cl)Nc1n[nH]c(C2CCC2)n1 [Compound 22]	90%	40%	100%	90%	
